The values below come from patent US20250332170A1, “VANDETANIB REDUCES INFLAMMATORY CYTOKINES AND AMELIORATES COVID-19” (Collaborations Pharmaceuticals, Inc., priority 2021, published 2025).

Series [1] deals with murine hepatitis virus (MHV). The series is described as follows: microbe, parasite or virus in culture. It counts as cell-based.
In another series the test system is HCoV 229E. As to the kind of experiment: HCoV 229E antiviral assay in Huh-7 cells. As to conditions: 5 μM. Format: cell-based, human coronavirus 229E.
Series [2] can be described thus: Cytotoxicity in Caco-2 cells (CC50). It counts as cell-based. As to conditions: human.
The subject of series [3] is SARS-CoV-2. As to the kind of experiment: microbe, parasite or virus in culture. It counts as cell-based. To be noted: Severe acute respiratory syndrome coronavirus 2, A549-ACE2.
For series [4], the system named is SARS-CoV-2. Also noted: species or system K18-hACE2 mice. As to conditions: mouse, in vivo.
For series [5] the following is noted: in vivo; cited from earlier work.
In series [6] the test system is SARS-CoV-2 (isolate USA WA1/2020).
For a further series, the system named is VEGF. To be noted: by day 28, severe COVID-19; cited from earlier work.
VEGF, sequence (P15692 207-311 limits assumed): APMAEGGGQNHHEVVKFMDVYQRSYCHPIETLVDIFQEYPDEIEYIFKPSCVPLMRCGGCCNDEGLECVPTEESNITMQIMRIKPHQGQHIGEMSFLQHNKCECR

Entries after “also recorded” stand apart in the source; their conditions may differ. Where two headings read alike, the source gives them in different places.

For orientation: inhibition means the drop in the measured response relative to a control, in per cent. With `CN(C)C/C=C/C(=O)Nc1cc2c(Nc3ccc(F)c(Cl)c3)ncnc2cc1O[C@H]1CCOC1` [Afatinib], the inhibition at 10 µM in series [1] (Murine coronavirus, DBT cells) came out at 98%.

Take `CCc1cc2c(cc1N1CCC(N3CCOCC3)CC1)C(C)(C)c1[nH]c3cc(C#N)ccc3c1C2=O` [Alectinib]: in series [1] (Murine coronavirus, DBT cells), the inhibition at 10 µM stood at 62%. Still for that read-out and setting: for `COc1cc(N2CCC(N3CCN(C)CC3)CC2)ccc1Nc1ncc(Cl)c(Nc2ccccc2P(C)(C)=O)n1` [Brigatinib] the value was 39%. The same measure, in the same setting: then `COc1cc2nccc(Oc3ccc(NC(=O)C4(C(=O)Nc5ccc(F)cc5)CC4)cc3)c2cc1OC` [Cabozantinib], with 61%; and `CCS(=O)(=O)N1CCN(c2ccc(Nc3ncc(C(N)=O)c(NC4CC4)n3)cc2)CC1` [Cerdulatinib], with 78%; and `Cc1cc(Nc2ncc(Cl)c(Nc3ccccc3S(=O)(=O)C(C)C)n2)c(OC(C)C)cc1C1CCNCC1` [Ceritinib], with 94%. Still for that read-out and setting: then `O=C(c1ccc(F)c(F)c1Nc1ccc(I)cc1F)N1CC(O)([C@@H]2CCCCN2)C1` [Cobimetinib], with 82%; and `CC(C)(C)c1nc(-c2cccc(NS(=O)(=O)c3c(F)cccc3F)c2F)c(-c2ccnc(N)n2)s1` [Dabrafenib], with -12%. For `Cc1nc(Nc2ncc(C(=O)Nc3c(C)cccc3Cl)s2)cc(N2CCN(CCO)CC2)n1` [Dasatinib], the inhibition at 10 µM in series [1] (Murine coronavirus, DBT cells) came to 65%. On the same count and under the same terms, then `CNC(=O)c1ccc(Nc2ncc(C(F)(F)F)c(NCc3nccnc3N(C)S(C)(=O)=O)n2)cc1` [Defactinib], with 36%.

Usually CC50 stands for the concentration giving 50% cytotoxicity. A high value points to lower toxicity to the cells. Broadly, the IC50 is the point on the concentration scale where inhibition reaches its midpoint. With `CN1CCN(c2ccc(C(=O)Nc3n[nH]c4ccc(Cc5cc(F)cc(F)c5)cc34)c(NC3CCOCC3)c2)CC1` [Entrectinib], in series [1] (Murine coronavirus, DBT cells), the inhibition at 10 µM was determined as 97%. Moreover, the “Reduction of HCoV-229E titer” value in the series on HCoV 229E stood at 2.7 logTCID50/mL. The compound also came in with a cytotoxic concentration (CC50) in series [2] of 3600 nM. In the series on SARS-CoV-2 [3], half-maximal inhibition (IC50) was put at 1970 nM. `C#Cc1cccc(Nc2ncnc3cc(OCCOC)c(OCCOC)cc23)c1` [Erlotinib]: in series [1] (Murine coronavirus, DBT cells), the inhibition at 10 µM is 32%. Same read-out and setting: for `CO[C@H]1C[C@@H]2CC[C@@H](C)[C@@](O)(O2)C(=O)C(=O)N2CCCC[C@H]2C(=O)O[C@H]([C@H](C)C[C@@H]2CC[C@@H](OCCO)[C@H](OC)C2)CC(=O)[C@H](C)/C=C(\C)[C@@H](O)[C@@H](OC)C(=O)[C@H](C)C[C@H](C)/C=C/C=C/C=C/1C` [Everolimus] the value was 46%. The same measure, in the same setting: then `Cc1ncc(NC(=O)c2ccc(CN3CCN(C)CC3)c(C(F)(F)F)c2)cc1Nc1nccc(-c2cccnc2)n1` [Flumatinib], with 83%. On the same count and under the same terms, then `Cc1cccc(-c2nn3c(c2-c2ccnc4ccc(C(N)=O)cc24)CCC3)n1` [Galunisertib], with 26%; and `C=CC(=O)N1CCC[C@@H](n2nc(-c3ccc(Oc4ccccc4)cc3)c3c(N)ncnc32)C1` [Ibrutinib], with -69%.

Consider `CC[C@H](Nc1ncnc2nc[nH]c12)c1nc2cccc(F)c2c(=O)n1-c1ccccc1` [Idelalisib], for which the inhibition at 10 µM in series [1] (Murine coronavirus, DBT cells) was found to be 17%. Still for that read-out and setting: then `Cc1ccc(NC(=O)c2ccc(CN3CCN(C)CC3)cc2)cc1Nc1nccc(-c2cccnc2)n1` [Imatinib], with 81%; and `CS(=O)(=O)CCNCc1ccc(-c2ccc3ncnc(Nc4ccc(OCc5cccc(F)c5)c(Cl)c4)c3c2)o1` [Lapatinib], with 88%; and `C[C@]1(O)C[C@@H](c2nc(-c3ccc4ccc(-c5ccccc5)nc4c3)c3c(N)nccn32)C1` [Linsitinib], with 46%.

`COc1cc2nccc(Oc3ccc(NC(=O)NC4CC4)c(Cl)c3)c2cc1C(N)=O` [Lonvatinib]: the inhibition at 10 µM in series [1] (Murine coronavirus, DBT cells) was -12%. The same measure, in the same setting: for `Cc1cn(-c2cc(NC(=O)c3ccc(C)c(Nc4nccc(-c5cccnc5)n4)c3)cc(C(F)(F)F)c2)cn1` [Nilotinib] the value was 66%; for `COC(=O)c1ccc2c(c1)NC(=O)/C2=C(\Nc1ccc(N(C)C(=O)CN2CCN(C)CC2)cc1)c1ccccc1` [Nintedanib], 95%; for `C=CC(=O)Nc1cc(Nc2nccc(-c3cn(C)c4ccccc34)n2)c(OC)cc1N(C)CCN(C)C` [Osimertinib], 98%.

Regarding `CC(=O)c1c(C)c2cnc(Nc3ccc(N4CCNCC4)cn3)nc2n(C2CCCC2)c1=O` [Palbociclib], the inhibition at 10 µM in series [1] (Murine coronavirus, DBT cells) stood at 5%.

For `Cc1ccc(Nc2nccc(N(C)c3ccc4c(C)n(C)nc4c3)n2)cc1S(N)(=O)=O` [Pazopanib], in series [1] (Murine coronavirus, DBT cells), the inhibition at 10 µM came out at 20%.

As to `Cc1ccc(C(=O)Nc2ccc(CN3CCN(C)CC3)c(C(F)(F)F)c2)cc1C#Cc1cnc2cccnn12` [Ponatinib], the inhibition at 10 µM in series [1] (Murine coronavirus, DBT cells) stood at 98%. On the same count and under the same terms, then `CNC(=O)c1cc(Oc2ccc(NC(=O)Nc3ccc(Cl)c(C(F)(F)F)c3)c(F)c2)ccn1` [Regorafenib], with 65%; and `CN(C)C(=O)c1cc2cnc(Nc3ccc(N4CCNCC4)cn3)nc2n1C1CCCC1` [Ribociclib], with -4%. On the same count and under the same terms, for `CNCc1ccc(-c2[nH]c3cc(F)cc4c3c2CCNC4=O)cc1` [Rucaparib] the value was -48%.

On to `N#CC[C@H](C1CCCC1)n1cc(-c2ncnc3[nH]ccc23)cn1` [Ruxolitinib], for which, in series [1] (Murine coronavirus, DBT cells), the inhibition at 10 µM is -46%.

On to `CNC(=O)c1cc(Oc2ccc(NC(=O)Nc3ccc(Cl)c(C(F)(F)F)c3)cc2)ccn1` [Sorafenib], for which the inhibition at 10 µM in series [1] (Murine coronavirus, DBT cells) was 74%.

In the case of `CCN(CC)CCNC(=O)c1c(C)[nH]c(/C=C2\C(=O)Nc3ccc(F)cc32)c1C` [Sunitinib], in series [1] (Murine coronavirus, DBT cells), the inhibition at 10 µM is 96%. The same measure, in the same setting: for `CO[C@H]1C[C@@H]2CC[C@@H](C)[C@@](O)(O2)C(=O)C(=O)N2CCCC[C@H]2C(=O)O[C@H]([C@H](C)C[C@@H]2CC[C@@H](OC(=O)C(C)(CO)CO)[C@H](OC)C2)CC(=O)[C@H](C)/C=C(\C)[C@@H](O)[C@@H](OC)C(=O)[C@H](C)C[C@H](C)/C=C/C=C/C=C/1C` [Temsirolimus] the value was 4%; for `COc1cc2nccc(Oc3ccc(NC(=O)Nc4cc(C)on4)c(Cl)c3)c2cc1OC` [Tivozanib], 29%. Still for that read-out and setting: for `C[C@@H]1CCN(C(=O)CC#N)C[C@@H]1N(C)c1ncnc2[nH]ccc12` [Tofacitinib] the value was -7%; for `CC(=O)Nc1cccc(-n2c(=O)n(C3CC3)c(=O)c3c(Nc4ccc(I)cc4F)n(C)c(=O)c(C)c32)c1` [Trametinib], -40%. Take `COc1cc2c(Nc3ccc(Br)cc3F)ncnc2cc1OCC1CCN(C)CC1` [Vandetanib]: the inhibition at 10 µM in series [1] (Murine coronavirus, DBT cells) is 97%. For the same compound, the IC50 in series [1] (Murine coronavirus, DBT cells, FIG. 5, read-out: IC50 against MHV) was found to be 1600 nM. Also, in the series with HCoV 229E, the “Reduction of HCoV-229E titer” value is reported as over 3. In addition, in the series on SARS-CoV-2 [4], the “Lung CCL2 level” value is listed as “significantly reduced; also recorded: decreased”, the “Lung CCL3 level” value is “significantly reduced; also recorded: decreased”, the “Lung CCL4 level” value is recorded as “reduced; also recorded: decreased” and the “Lung IL-6 level” value is given as “statistically significantly reduced”. Besides, in the series with SARS-CoV-2 [4], the “Lung IL-10 level” value was “statistically significantly reduced”; the “Lung TNF-α level” value is listed as “statistically significantly reduced”; the “Lung pathology / inflammatory cell infiltrates” value was “mitigated inflammatory cell infiltrates”; the “Lung viral load (viral RNA, RT-PCR)” value was “did not reduce”. Also, in the series with SARS-CoV-2 [4] (listed as vandetanib), the “Lung IFN-1β level” value was “restored the levels; also recorded: rescued”, the “Lung IL-6 level” value is on record as “reduces”, the “Lung IL-10 level” value was “reduces” and the “Lung TNF-α level” value is “reduces”. In the series on SARS-CoV-2 [4] (listed as vandetanib), the “Lung pathology / inflammatory cell infiltrates” value is “clear protective effect; also recorded: significant treatment effect with mild infiltration” and the “Lung viral load (viral RNA, RT-PCR)” value is “no significant reduction; also recorded: not observed”. For the same compound, in series [5], the “Absorption from the gut” value is listed as “well absorbed”, the Average half-life is recorded as 19 days, the “Excreted via the feces” value was 44% and the “Excreted via the urine” value is reported as 25%. In series [5], the Protein-bound was 92-94%, the Terminal excretion half-life was 20 days and the “Time to peak blood plasma concentrations” value was 4 to 10 h. In series [2], this compound came in with a CC50 of 4100 nM. For the same compound, in the series with SARS-CoV-2 [3], inhibition was half-maximal at 790 nM (IC50). Take `CCCS(=O)(=O)Nc1ccc(F)c(C(=O)c2c[nH]c3ncc(-c4ccc(Cl)cc4)cc23)c1F` [Vemourafenib]: the inhibition at 10 µM in series [1] (Murine coronavirus, DBT cells) is -3%. `CCC(CC)COC(=O)[C@H](C)N[P@](=O)(OC[C@H]1O[C@@](C#N)(c2ccc3c(N)ncnn23)[C@H](O)[C@@H]1O)Oc1ccccc1` [remdesivir] yielded an IC50 in the series on SARS-CoV-2 [3] of 110 nM. As to Alisertib, the “% Inhibition MHV-DBT cells 10 μM” value in series [1] is 19%. For Crizotinib, in series [1], the “% Inhibition MHV-DBT cells 10 μM” value is on record as 96%. In addition, the “Calu-3 result (toxicity)” value in series [6] was “toxic”. Take bevacizumab: in the series with VEGF, the Patients discharged is on record as 65%, the “Patients with improvement in oxygen-support status” value is reported as 92% and the “Patients with worsened oxygen-support status or died” value is on record as “none”.
